Data on 1 compound can be found in patent US6911454B1, “Method for potentiating primary drugs in treating multidrug resistant disease” (priority 1989, dated 2005).

The nature of data set [1]: d-Tetrandrine-(S) detected at the tumor. Conditions: 3 intraperitoneal injections over 120 hours, 150 mg/kg total. Format: in vivo, mice.
The test system of a further data set is breast cancer. Description: treatment of a person with breast cancer. Format: in vivo, human. Conditions: d-tetrandrine 180 mg per day orally from day 95, with trichemo (5-fluorouracil, cyclophosphamide, doxorubicin). The protocol:
A person with breast cancer was given d-tetrandrine orally, three times a day for a total of 180 mg per day, over a two week period. Five days after the beginning of that treatment, they were given a trichemo soup of 5-fluorouracil, cyclophosphamide and doxorubicin. Eight days later, near the end of the d-tetrandrine dosage, they were given 5-fluorouracil. This regime was followed two different times approximately two weeks apart during the course of retreatment.
A person with very serious breast cancer has also been successfully treated in accordance with the method of the present invention. The tables below describe their treatment regime, which involved a trichemo soup of 5-fluorouracil, cyclophosphamide and doxorubicin, administered intermittently with 5-fluorouracil alone. No d-tetrandrine was administered until day 95.
FIG. 11 is a graphical log of […] tumor area in cubic centimeters charted against days elapsed. The tumor initially responded to the trichemo treatment alone, reducing in size until day 50.
The patient was diagnosed via biopsy on Mar. 19, 1991 as having an infiltrated carcinoma (poorly differentiated) on the right breast. […] They were treated with a combination of 5-fluorouracil, cyclophosphamide and doxorubicin according to the schedule shown below. […] Notice the increase in tumor size between days 50 and 100 indicating the formation of drug resistance.

The subject of data set [2] is resistant (K562-R7) cancel cells. Kind of data set: doxorubicin fluorescence test by flow cytometry. The class given is cell-based. Conditions: FIG. 12, resistant cells pre-incubated with tetrandrine.
In data set [3] the test system is CQ-sensitive (FCMSU1/Sudan) strain of P. falciparum. Kind of data set: 3H-adenosine incorporation, chloroquine-sensitive P. falciparum. The class given is cell-based. The protocol:
(§1) Chloroquine and qinghaosu are commonly used antimalarial drugs.
(§2) The dose (IC50) of each drug or each drug combination required to effect a 50% inhibition in the malarial activity of each strain was determined by establishing a dose response curve for each.
(§3) FCMSU1/Sudan strain and cloned Indochina (W-2) strain of P. falciparum were used. […] The two strains of the parasite were cultured according to the candle jar method of Trager and Jensen, Science, Vol. 193, pages 673-675 (1976). In a given experiment, four-day-old Petri dish cultures (approximately 10% parasitemia) were diluted with medium containing an amount of noninfected type A human erythrocytes to obtain a culture with a final hematocrit of 1.5% and parasitemia of 0.5-1.0%. The resulting culture was ready for addition to microtitration plates with ninety-six flat-bottom wells.
(§4) The testing procedure used was similar to that described by Desjardins et al. in “Antimicrobial Agents and Chemotherapy,” Vol. 16, pages 710-718 (1979). […] 25 microliters radioactive (0.5 microCi) [2,8-^3H] adenosine. The microtitration plates were incubated in a candle jar for an additional 18 hours, at 37° C.
(§5) As the malaria parasite grows ^3H-adenosine is metabolized and incorporates into polymeric RNA and DNA. The labeled polymers are trapped on glass fiber filters and unincorporated material is washed away. In the absence of drug there is 100% incorporation of the labeled material. When drugs interfere (directly or indirectly), an inhibitory dose of 50% (IC50) can be calculated. The experiments were repeated three times except where noted. Statistical analysis was done using Student's T-test for significance. Van Kyke et al. “Exp. Parasitol,” Vol. 64, pages 418-423 (1987).
(§6) The test procedure was basically the same as outlined above.

Data set [4] deals with CQ-resistant (W-2) strain of P. falciparum. Description: 3H-adenosine incorporation, chloroquine-resistant P. falciparum. Format: cell-based. The procedure:
as §1, §2, §3, §4, §5, §6

Molecules are shown by their SMILES. Entries after “also recorded” stand apart in the source; their conditions may differ. Where two headings read alike, the source gives them in different places.

Consider `COc1ccc2cc1Oc1ccc(cc1)C[C@H]1c3cc(c(OC)cc3CCN1C)Oc1c(OC)c(OC)cc3c1[C@H](C2)N(C)CC3` [TT, tetrandrine], for which the “d-Tetrandrine-(S) detected at the tumor” value in data set [1] stood at 54 micrograms/gram tissue. In addition, the “tumor outcome in patient” value with breast cancer is reported as “substantially eliminated; also recorded: continued to diminish to nonexistence by day 175”. Besides, the results for the “doxorubicin concentration (fluorescence) in resistant versus sensitive cells” value in data set [2] (listed as d-tetrandrine) and in data set [2] (listed as tetrandrine (TT)) were “greater in the resistant cancer than it is in the sensitive cancer” and “contains more doxorubicin than the sensitive strain”, respectively. Also, the IC50 in data set [3] (S STRAIN, TT/CQ 10:1, mean ± S.D, read-out: IC50 DRUG COMBINATION TT(2.0 uM) CQ(0.2 uM)) stood at 114 ± 23 nM; in data set [3] (S STRAIN, TT/QHS 10:1, mean ± S.D, read-out: IC50 DRUG COMBINATION TT(2.0 uM) QHS(0.2 uM)) it was 114 ± 6.3 nM; in data set [3] (Table III, S STRAIN, mean ± S.D, read-out: IC50 SINGLE DRUG), 498 ± 93.7 nM; in data set [3] (Table IV, S STRAIN, mean ± S.D, read-out: IC50 SINGLE DRUG), 410 ± 69 nM; in data set [3] (Table VII, chloroquine-sensitive strain, drug alone, read-out: IC50 S), 290 nM; in data set [3] (read-out: IC50 DRUG COMBINATION TT(1.0 uM) CQ(0.3 uM), S STRAIN, TT/CQ 10:3, mean ± S.D), 54.9 ± 7.1 nM. The IC50 in data set [3] (read-out: IC50 DRUG COMBINATION TT(1.0 uM) QHS(0.3 uM), S STRAIN, TT/QHS 10:3, mean ± S.D) is 71.9 ± 8.9 nM; in data set [3] (read-out: IC50 DRUG COMBINATION TT(3.0 uM) CQ(0.1 uM), S STRAIN, TT/CQ 30:1, mean ± S.D), 223 ± 38.6 nM; in data set [3] (read-out: IC50 DRUG COMBINATION TT(3.0 uM) QHS(0.1 uM), S STRAIN, TT/QHS 30:1, mean ± S.D), 220 ± 35.5 nM; in data set [4] (R STRAIN, TT/CQ 10:1, mean ± S.D, read-out: IC50 DRUG COMBINATION TT(2.0 uM) CQ(0.2 uM)), 79.5 ± 16.1 nM; in data set [4] (R STRAIN, TT/QHS 10:1, mean ± S.D, read-out: IC50 DRUG COMBINATION TT(2.0 uM) QHS(0.2 uM)), 71.8 ± 13.8 nM; in data set [4] (Table III, R STRAIN, mean ± S.D, read-out: IC50 SINGLE DRUG), 198 ± 24.7 nM. Besides, the IC50 is 206 ± 49.8 nM in data set [4] (Table IV, R STRAIN, mean ± S.D, read-out: IC50 SINGLE DRUG); 120 nM in data set [4] (Table VII, chloroquine-resistant strain, drug alone, read-out: IC50 R); 79.5 ± 13.7 nM in data set [4] (read-out: IC50 DRUG COMBINATION TT(1.0 uM) CQ(0.3 uM), R STRAIN, TT/CQ 10:3, mean ± S.D); 59.6 ± 13.7 nM in data set [4] (read-out: IC50 DRUG COMBINATION TT(1.0 uM) QHS(0.3 uM), R STRAIN, TT/QHS 10:3, mean ± S.D); 125 ± 9.6 nM in data set [4] (read-out: IC50 DRUG COMBINATION TT(3.0 uM) CQ(0.1 uM), R STRAIN, TT/CQ 30:1, mean ± S.D); 137 ± 41.6 nM in data set [4] (read-out: IC50 DRUG COMBINATION TT(3.0 uM) QHS(0.1 uM), R STRAIN, TT/QHS 30:1, mean ± S.D).
